This test deals with murine neural precursor cells (neurosphere cultures). The test can be described thus: HTS of LOPAC library against secondary neurosphere cultures, MTT proliferation assay at 3 μM, day 7 (z score, P value). Type of test: cell-based, mouse. (In general: Formazan colour is commonly taken as a measure of viable cells.)
Where [1] appears, read: LOPAC screen, neurosphere MTT proliferation, 3 μM, day 7.
[2] abbreviates: yes/no: significantly inhibited neurosphere proliferation (P<0.01) in primary screen.
[3] abbreviates: primary LOPAC screen, 3 μM, MTT, neurosphere proliferation.
Where [4] appears, read: yes/no: significantly inhibited neurosphere proliferation in the primary screen.
The mark [5] stands for this setting: LOPAC primary screen, neurosphere MTT proliferation, 3 μM, day 7.
Setting [6] is: yes/no: significantly inhibited neurosphere proliferation in primary screen.
Where [7] appears, read: yes/no: significantly inhibited neurosphere proliferation (P<0.01) in the primary screen.
[8] abbreviates: yes = significantly inhibited neurosphere proliferation (P<0.01) in the primary screen.
Where [9] appears, read: LOPAC library screen, 3 μM, MTT, secondary neurosphere cultures, day 7.
The mark [10] stands for this setting: LOPAC library screen, 3 μM, MTT, neurosphere cultures.
The mark [11] stands for this setting: LOPAC library screen at 3 μM, secondary neurosphere cultures, MTT.

Where two headings read alike, the source gives them in different places.

As for `Cl.Cl.Clc1cccc(N2CCNCC2)c1`, the “Z Score” value is on record as 0.9516.
`Cl.NCC(O)C1CCCCCCC1` (stereo not drawn) [listing 1 of 2 here] had a Z score under setting [1] of −0.575. Moreover, the Activity entry under setting [2] is “no”.
For `Cl.NCC(O)C1CCCCCCC1` (stereo not drawn) [listing 2 of 2 here], the “Z Score” value is on record as −0.5747.
As for `C[N+]1(C)C2CCC1CC(OC(=O)c1c[nH]c3ccccc13)C2.[I-]` (stereo not drawn), the “Z Score” value is on record as −0.3436. The molecule further displayed a Z score under setting [3] of −0.344. Under setting [4], the Activity entry is recorded as “no”.
For the molecule `Cl.Fc1ccc(C(OCCCc2c[nH]cn2)c2ccc(F)cc2)cc1`, the “Z Score” value is on record as −0.01466.
In the case of `C[C@]12CC[C@@H](O)C[C@@H]1CC[C@@H]1[C@@H]2CC[C@]2(C)[C@@H](C(=O)CO)CC[C@@H]12`, the “Z Score” value turned out to be 0.4441. The same molecule returned a Z score under setting [5] of 0.444. Further, the Activity entry under setting [6] is reported as “no”.
On to `CN1C2CCC1CC(OC(c1ccccc1)c1ccc(Cl)cc1)C2.Cl` (stereo not drawn), for which the “Z Score” value is reported as −9.672. In addition, the Z score under setting [5] is reported as −9.672. The Activity result under setting [7] was “yes”.
Regarding `COc1ccc2[nH]c3c(c2c1)CCNC3` [listing 1 of 2 here], the “Z Score” value was −2.661.
For the molecule `COc1ccc2[nH]c3c(c2c1)CCNC3` [listing 2 of 2 here], the Z score under setting [5] is reported as −2.661. Besides, the Activity result under setting [8] is listed as “yes”.
For `Nc1ncnc2c1c(-c1ccc(Oc3ccccc3)cc1)cn2C1CCCC1`, the “Z Score” value is given as −1.412. The molecule further yielded a Z score under setting [1] of −1.412. Moreover, under setting [2], the Activity result is “no”.
Take `CC1CCCC=CC2CC(O)CC2C(O)C=CC(=O)O1` (stereo not drawn): the “Z Score” value is −11.27. Under setting [5], this molecule yielded a Z score of −11.274. Also, the Activity entry under setting [8] is “yes”.
As to `Cl.Nc1ccn([C@@H]2O[C@H](CO)[C@@H](O)[C@@H]2O)c(=O)n1`, under setting [9], the “Z Score” value was −11.27. Also, the Z score under setting [5] was −11.274. Under setting [7], the Activity entry is listed as “yes”.
For the molecule `COc1ccc2c(c1)[C@]13CCCC[C@@H]1[C@H](C2)N(C)CC3`, the “Z Score” value is recorded as −0.7932. For the same molecule, the Z score under setting [5] is −0.793. Besides, under setting [7], the Activity result is “no”.
As for `O=C(O)CN(CCOCCOCCN(CC(=O)O)CC(=O)O)CC(=O)O`, the Activity result is on record as “no”, the “Z Score” value was determined as 1.507 and the Z score came to 1.507.
Take `NC(N)=Nc1ccc2[nH]c3c(c2c1)C[C@@]1(O)[C@H]2Cc4ccc(O)c5c4[C@@]1(CCN2CC1CC1)[C@H]3O5.O=C(O)C(F)(F)F.O=C(O)C(F)(F)F`: the “Z Score” value is given as −0.2037. Besides, under setting [5], the Z score is −0.204. Besides, the Activity entry under setting [2] is recorded as “no”.
Turning to `Cl.O[Si](CCCN1CCCCC1)(c1ccc(F)cc1)C1CCCCC1` (stereo not drawn), the “Z Score” value under setting [9] is reported as −1.492. The same molecule came in with a Z score under setting [5] of −1.492. The Activity result under setting [2] is listed as “no”.
As to `CC[N+](CC)(CC)CC(=O)Nc1c(C)cccc1C.[Br-]`, the “Z Score” value under setting [10] is reported as 0.2653. Besides, the Z score under setting [5] is reported as 0.265. Moreover, the Activity entry under setting [2] is reported as “no”.
Turning to `Cl.O=C(CCCN1CCC2(CC1)C(=O)N(CCc1ccc(N=C=S)cc1)CN2c1ccccc1)c1ccc(F)cc1`, the “Z Score” value under setting [11] is recorded as −0.4152. The molecule further had a Z score under setting [5] of −0.415. The Activity entry under setting [8] was “no”.
As for `CNCCc1c[nH]c2ccc(O)cc12.O=C(O)C(=O)O`, the “Z Score” value came to 0.656. Also, under setting [5], the Z score is listed as 0.656. Besides, the Activity entry under setting [8] was “no”.
Consider `Cc1ccc(S(=O)(=O)N[C@@H](Cc2ccccc2)C(=O)CCl)cc1`, for which the “Z Score” value stood at 0.3367. The Z score under setting [3] is 0.337. Moreover, under setting [4], the Activity entry is reported as “no”.
As to `COC(=O)[C@@H](N)CCCN=C(N)N[N+](=O)[O-].Cl`, under setting [9], the “Z Score” value was −1.411. This molecule displayed a Z score under setting [5] of −1.411. Besides, the Activity result under setting [8] is on record as “no”.
With `CCCN(CCC)CCc1c[nH]c2ccc(C(N)=O)cc12.O=C(O)/C=C\C(=O)O`, the “Z Score” value was −1.73. Further, the Z score under setting [1] was −1.730. Also, the Activity entry under setting [2] is recorded as “no”.
Take `CC(COc1ccc(/C=C/c2ccccc2)cc1)[N+](C)(C)C.[I-]` (stereo not drawn): the “Z Score” value is recorded as −11.13.
As for `CC(COc1ccc(/C=C/c2ccccc2)cc1)[N+](C)(C)C` (stereo not drawn), under setting [5], the Z score was −11.127. Further, under setting [7], the Activity entry is “yes”.
`CN(C)C(N)=NCCC[C@H](N)C(=O)O.Cl`: the “Z Score” value is given as −1.373.
Turning to `Cc1ccc(S(=O)(=O)N[C@@H](CCCCN)C(=O)CCl)cc1.Cl`, the Activity entry was “no” and the “Z Score” value is listed as 0.004812. Also, the Z score under setting [5] came to 0.005.
For `CC(Cc1ccc(O)c(O)c1)C(C)Cc1ccc(O)c(O)c1` (stereo not drawn), the “Z Score” value (LOPAC library screen at 3 μM, MTT, secondary neurosphere cultures, screened in singlets) came out at 2.63. The molecule also had a Z score under setting [5] of 2.630. Under setting [8], the Activity entry is “no”.
`CCCN1CCc2cc(O)cc3c2[C@H]1Cc1ccc(O)c(O)c1-3` displayed a Z score under setting [5] of −2.744. In addition, the Activity entry under setting [7] is recorded as “yes”.
Take `CN[C@H](CC(C)C)C(=O)N[C@H]1C(=O)N[C@@H](CC(N)=O)C(=O)N[C@H]2C(=O)N[C@H]3C(=O)N[C@H](C(=O)N[C@H](C(=O)O)c4cc(O)cc(O)c4-c4cc3ccc4O)[C@H](O)c3ccc(c(Cl)c3)Oc3cc2cc(c3O[C@@H]2O[C@H](CO)[C@@H](O)[C@H](O)[C@H]2O[C@H]2C[C@](C)(N)[C@H](O)[C@H](C)O2)Oc2ccc(cc2Cl)[C@H]1O.Cl`: under setting [10], the “Z Score” value is listed as −0.06352. The molecule further registered a Z score under setting [3] of −0.064. For the same molecule, under setting [4], the Activity result is given as “no”.
As to `N[C@H](C(=O)O)[C@H]1C[C@@H]1C(=O)O`, the “Z Score” value came out at 1.233. In addition, the Z score under setting [1] came out at 1.233. For the same molecule, the Activity result under setting [2] is given as “no”.
Regarding `C[C@H](O)[C@H](O)[C@H]1CNc2nc(N)[nH]c(=O)c2N1.Cl`, the “Z Score” value under setting [10] came out at 0.9757. Under setting [3], this molecule gave a Z score of 0.976. Also, the Activity entry under setting [4] is listed as “no”.
Turning to `CC(N)c1cccc(Cl)c1Cl.Cl` (stereo not drawn), the “Z Score” value is given as −2.251.
In the case of `O=C(O)[C@H]1CCCN[C@H]1C(=O)O`, the “Z Score” value was 0.1553.
With `CCCCCCCCCC(=O)NC(CN1CCOCC1)[C@H](O)c1ccccc1.Cl` (stereo partly drawn), under setting [11], the “Z Score” value is −1.109.
As to `CC[C@@H]1Cc2cc(O)ccc2C2=C1c1ccc(O)cc1C[C@H]2CC`, the “Z Score” value is listed as −1.053. Also, under setting [5], the Z score is −1.053. Under setting [7], the Activity result is listed as “no”.
With `Nc1ncnc2c1ncn2[C@@H]1O[C@H](COP(=O)(O)CP(=O)(O)OP(=O)([O-])[O-])[C@H](O)C1O.[Li+].[Li+]` (stereo partly drawn), the “Z Score” value under setting [9] is −1.29. Under setting [5], this molecule displayed a Z score of −1.290. Moreover, the Activity result under setting [8] is listed as “no”.
On to `CCCCCCC(C(C)O)n1cnc2c(N)ncnc21.Cl` (stereo not drawn), for which, under setting [11], the “Z Score” value is listed as −0.7656. The molecule further yielded a Z score under setting [5] of −0.766. For the same molecule, the Activity entry under setting [2] is on record as “no”.
Consider 5-Bromo-2$$-deoxyuridine, for which the “Z Score” value turned out to be 2.58.
For `CCOC(=O)[C@]12CC1/C(=N\O)c1ccccc1O2` (mixture of isomers) [CPCCOEt], the “Z Score” value under setting [11] is recorded as −0.8068. Moreover, the Z score under setting [1] was −0.807.
As to `Cl.NCCC[C@](N)(C(=O)O)C(F)F` (racemic), the “Z Score” value under setting [11] is on record as −0.4244. Besides, the Z score under setting [1] is −0.424. For the same molecule, under setting [2], the Activity result is listed as “no”.
For the molecule `CC(N)(Cc1ccc(O)c(O)c1)C(=O)O` (racemic), the “Z Score” value is on record as −1.894.
Regarding `CCCCCCCCCC(=O)NC(CN1CCOCC1)[C@H](O)c1ccccc1.Cl` (mixture of isomers), the Activity result is on record as “no”. Further, the Z score under setting [5] is −1.109.
Take `NC(Cc1cc(O)c(O)cc1O)C(=O)O` (racemic) [6-Hydroxy-DL-DOPA]: the “Z Score” value was found to be 1.204. Moreover, the Z score under setting [5] is 1.204. Besides, the Activity entry under setting [2] was “no”.
`CC(N)c1cccc(Cl)c1Cl.Cl` (racemic) [(±)-2,3-Dichloro-alpha-methylbenzylamine hydrochloride] gave a Z score under setting [1] of −2.251. Also, the Activity result under setting [2] is “no”.
Molecule `NC(CP(=O)(O)O)C(=O)O` (racemic) [(±)-2-Amino-3-phosphonopropionic acid] gave a Z score under setting [3] of 1.250. Also, the Activity entry under setting [4] is recorded as “no”.
With `NC(CCP(=O)(O)O)C(=O)O` (racemic) [(±)-2-Amino-4-phosphonobutyric acid], the Z score under setting [3] came to 1.893. For the same molecule, under setting [4], the Activity entry is recorded as “no”.
With `NC(CCCP(=O)(O)O)C(=O)O` (racemic) [(±)-2-Amino-5-phosphonopentanoic acid], the Z score (168 h, 3 µM) is −1.045. Under setting [4], the Activity entry is reported as “no”.
Regarding `NC(CCCCCP(=O)(O)O)C(=O)O` (racemic) [(±)-2-Amino-7-phospheneheptanoic acid], under setting [3], the Z score was −1.020. Besides, under setting [4], the Activity entry is reported as “no”.
In the case of `CC(N)(Cc1ccc(O)c(O)c1)C(=O)O` (racemic) [(±)-3-(3,4-dihydroxyphenyl)-2-methyl-DL-alanine], the Z score (168 h, 3 µM) is −1.894. Under setting [8], the Activity result is reported as “no”.
`Br.Oc1cc2c(c(Cl)c1O)CCNCC2c1ccccc1` (racemic) [(±)-6-Chloro-PB hydrobromide] had a Z score under setting [5] of −2.267. The Activity entry under setting [6] is reported as “no”.
`Br.CCCN(CCC)C1CCc2ccc(O)cc2C1` (racemic) [(±)-7-Hydroxy-DPAT hydrobromide] had a Z score under setting [5] of −11.102. Moreover, under setting [7], the Activity entry is on record as “yes”.
`Br.CCCN(CCC)C1CCc2cccc(O)c2C1` (racemic) [(±)-8-Hydroxy-DPAT hydrobromide] gave a Z score under setting [5] of 0.656. In addition, the Activity result under setting [7] is “no”.
Under setting [5], `Br.Cc1o[nH]c(=O)c1CC(N)C(=O)O` (racemic) [(±)-AMPA hydrobromide] registered a Z score of −0.427. Further, the Activity entry under setting [2] is “no”.
In the case of `CC1CCN=C(N)S1.Cl` (racemic) [(±)-AMT hydrochloride], the Z score under setting [5] is listed as −2.366. The Activity result under setting [8] is “yes”.
